Assay: HPLC stability of bendamustine (15 mg/mL, mannitol 25.5 mg/mL) in alcohol/water solutions at 5° C.
Type: physicochemical
Conditions: 5° C.
Experimental: A sample of each formulation was analyzed by HPLC after 0, 3, 6 and 24 hours when stored at 5° C.

In the case of Cl.Cn1c(CCCC(=O)O)nc2cc(N(CCCl)CCCl)ccc21 [bendamustine, 4-{5-[Bis(2-chloroethyl)amino]-1-methyl-2-benzimidazolyl}butyric acid], the “Dimer (%)” value (1.9% Ethanol, 0 hours) is reported as 0.12%, the “HP1 (%)” value (1.9% Ethanol, 0 hours) is reported as 0.64% and the “Purity (% Area)” value (1.9% Ethanol, 0 hours) is reported as 99.11 % Area. For the same compound, the “Dimer (%)” value (1.9% Ethanol, 3 hours) was 0.14%, the “HP1 (%)” value (1.9% Ethanol, 3 hours) was 0.90% and the “Purity (% Area)” value (1.9% Ethanol, 3 hours) was 98.83 % Area. For the same compound, the “Dimer (%)” value (1.9% Ethanol, 6 hours) was 0.15%, the “HP1 (%)” value (1.9% Ethanol, 6 hours) was 1.12% and the “Purity (% Area)” value (1.9% Ethanol, 6 hours) was 98.60 % Area. For the same compound, the “Dimer (%)” value (1.9% Ethanol, 24 hours) was 0.27%, the “HP1 (%)” value (1.9% Ethanol, 24 hours) was 3.41% and the “Purity (% Area)” value (1.9% Ethanol, 24 hours) was 96.16 % Area. For the same compound, the “Dimer (%)” value (5% Butanol, 0 hours) was 0.13%, the “HP1 (%)” value (5% Butanol, 0 hours) was 0.49% and the “Dimer (%)” value (5% Butanol, 3 hours) was 0.14%. For the same compound, the “Dimer (%)” value (5% Butanol, 6 hours) was 0.14%, the “HP1 (%)” value (5% Butanol, 6 hours) was 0.91% and the “Purity (% Area)” value (5% Butanol, 6 hours) was 98.76 % Area. For the same compound, the “Dimer (%)” value (5% Butanol, 24 hours) was 0.21%, the “HP1 (%)” value (5% Butanol, 24 hours) was 2.20% and the “Purity (% Area)” value (5% Butanol, 24 hours) was 97.46 % Area. For the same compound, the “Dimer (%)” value (5% Ethanol, 0 hours) was 0.12%, the “HP1 (%)” value (5% Ethanol, 0 hours) was 0.44% and the “Purity (% Area)” value (5% Ethanol, 0 hours) was 99.31 % Area. The “Dimer (%)” value (5% Ethanol, 3 hours) was 0.13%, the “HP1 (%)” value (5% Ethanol, 3 hours) was 0.64% and the “Purity (% Area)” value (5% Ethanol, 3 hours) was 99.10 % Area. The “Dimer (%)” value (5% Ethanol, 6 hours) was 0.14%, the “HP1 (%)” value (5% Ethanol, 6 hours) was 0.86% and the “Purity (% Area)” value (5% Ethanol, 6 hours) was 98.87 % Area. The “Dimer (%)” value (5% Ethanol, 24 hours) was 0.25%, the “HP1 (%)” value (5% Ethanol, 24 hours) was 2.68% and the “Purity (% Area)” value (5% Ethanol, 24 hours) was 96.89 % Area. For the same compound, the “Dimer (%)” value (5% Iso-propanol, 0 hours) was 0.13%, the “HP1 (%)” value (5% Iso-propanol, 0 hours) was 0.48% and the “Purity (% Area)” value (5% Iso-propanol, 0 hours) was 99.21 % Area. The “Dimer (%)” value (5% Iso-propanol, 3 hours) was 0.14%, the “HP1 (%)” value (5% Iso-propanol, 3 hours) was 0.72% and the “Purity (% Area)” value (5% Iso-propanol, 3 hours) was 98.65 % Area. For the same compound, the “Dimer (%)” value (5% Iso-propanol, 6 hours) was 0.14%, the “HP1 (%)” value (5% Iso-propanol, 6 hours) was 1.02% and the “Purity (% Area)” value (5% Iso-propanol, 6 hours) was 98.56 % Area. The “Dimer (%)” value (5% Iso-propanol, 24 hours) was 0.26%, the “HP1 (%)” value (5% Iso-propanol, 24 hours) was 3.35% and the “Purity (% Area)” value (5% Iso-propanol, 24 hours) was 96.14 % Area. The “Dimer (%)” value (5% Methanol, 0 hours) was 0.12%, the “HP1 (%)” value (5% Methanol, 0 hours) was 0.40% and the “Purity (% Area)” value (5% Methanol, 0 hours) was 99.35 % Area. The “Dimer (%)” value (5% Methanol, 3 hours) was 0.14%, the “HP1 (%)” value (5% Methanol, 3 hours) was 0.70% and the “Purity (% Area)” value (5% Methanol, 3 hours) was 98.97 % Area. For the same compound, the “Dimer (%)” value (5% Methanol, 6 hours) was 0.14%, the “HP1 (%)” value (5% Methanol, 6 hours) was 0.95% and the “Purity (% Area)” value (5% Methanol, 6 hours) was 98.66 % Area. For the same compound, the “Dimer (%)” value (5% Methanol, 24 hours) was 0.23%, the “HP1 (%)” value (5% Methanol, 24 hours) was 2.83% and the “Purity (% Area)” value (5% Methanol, 24 hours) was 96.65 % Area. The “Dimer (%)” value (5% Tert-butanol, 0 hours) was 0.12%, the “HP1 (%)” value (5% Tert-butanol, 0 hours) was 0.41% and the “Purity (% Area)” value (5% Tert-butanol, 0 hours) was 99.34 % Area. The “Dimer (%)” value (5% Tert-butanol, 3 hours) was 0.14%, the “HP1 (%)” value (5% Tert-butanol, 3 hours) was 0.64% and the “Purity (% Area)” value (5% Tert-butanol, 3 hours) was 99.10 % Area. For the same compound, the “Dimer (%)” value (5% Tert-butanol, 6 hours) was 0.13%, the “HP1 (%)” value (5% Tert-butanol, 6 hours) was 0.88% and the “Purity (% Area)” value (5% Tert-butanol, 6 hours) was 98.85 % Area. For the same compound, the “Dimer (%)” value (5% Tert-butanol, 24 hours) was 0.20%, the “HP1 (%)” value (5% Tert-butanol, 24 hours) was 2.09% and the “Purity (% Area)” value (5% Tert-butanol, 24 hours) was 97.58 % Area. The “Dimer (%)” value (5% n-Propanol, 0 hours) was 0.13%, the “HP1 (%)” value (5% n-Propanol, 0 hours) was 0.43% and the “Purity (% Area)” value (5% n-Propanol, 0 hours) was 99.25 % Area. For the same compound, the “Dimer (%)” value (5% n-Propanol, 3 hours) was 0.15%, the “HP1 (%)” value (5% n-Propanol, 3 hours) was 0.66% and the “Purity (% Area)” value (5% n-Propanol, 3 hours) was 99.00 % Area. For the same compound, the “Dimer (%)” value (5% n-Propanol, 6 hours) was 0.16%, the “HP1 (%)” value (5% n-Propanol, 6 hours) was 0.94% and the “Purity (% Area)” value (5% n-Propanol, 6 hours) was 98.72 % Area. The “Dimer (%)” value (5% n-Propanol, 24 hours) was 0.26%, the “HP1 (%)” value (5% n-Propanol, 24 hours) was 2.33% and the “Purity (% Area)” value (5% n-Propanol, 24 hours) was 97.24 % Area. The “Dimer (%)” value (10% Butanol, 0 hours) was 0.11%, the “HP1 (%)” value (10% Butanol, 0 hours) was 0.30% and the “Purity (% Area)” value (10% Butanol, 0 hours) was 99.44 % Area. The “Dimer (%)” value (10% Butanol, 3 hours) was 0.12%, the “HP1 (%)” value (10% Butanol, 3 hours) was 0.49% and the “Purity (% Area)” value (10% Butanol, 3 hours) was 99.18 % Area. For the same compound, the “Dimer (%)” value (10% Butanol, 6 hours) was 0.12%, the “HP1 (%)” value (10% Butanol, 6 hours) was 0.64% and the “Purity (% Area)” value (10% Butanol, 6 hours) was 99.03 % Area. For the same compound, the “Dimer (%)” value (10% Butanol, 24 hours) was 0.17%, the “HP1 (%)” value (10% Butanol, 24 hours) was 1.55% and the “Purity (% Area)” value (10% Butanol, 24 hours) was 98.13 % Area. For the same compound, the “Dimer (%)” value (10% Ethanol, 0 hours) was 0.11%, the “HP1 (%)” value (10% Ethanol, 0 hours) was 0.33% and the “Purity (% Area)” value (10% Ethanol, 0 hours) was 99.44 % Area. The “Dimer (%)” value (10% Ethanol, 3 hours) was 0.12%, the “HP1 (%)” value (10% Ethanol, 3 hours) was 0.48% and the “Purity (% Area)” value (10% Ethanol, 3 hours) was 99.28 % Area. The “Dimer (%)” value (10% Ethanol, 6 hours) was 0.12%, the “HP1 (%)” value (10% Ethanol, 6 hours) was 0.65% and the “Purity (% Area)” value (10% Ethanol, 6 hours) was 99.10 % Area. For the same compound, the “Dimer (%)” value (10% Ethanol, 24 hours) was 0.18%, the “HP1 (%)” value (10% Ethanol, 24 hours) was 1.57% and the “Purity (% Area)” value (10% Ethanol, 24 hours) was 98.03 % Area. The “Dimer (%)” value (10% Iso-propanol, 0 hours) was 0.12%, the “HP1 (%)” value (10% Iso-propanol, 0 hours) was 0.37% and the “Purity (% Area)” value (10% Iso-propanol, 0 hours) was 99.32 % Area. For the same compound, the “Dimer (%)” value (10% Iso-propanol, 3 hours) was 0.14%, the “HP1 (%)” value (10% Iso-propanol, 3 hours) was 0.55% and the “Purity (% Area)” value (10% Iso-propanol, 3 hours) was 99.11 % Area. For the same compound, the “Dimer (%)” value (10% Iso-propanol, 6 hours) was 0.16%, the “HP1 (%)” value (10% Iso-propanol, 6 hours) was 0.75% and the “Purity (% Area)” value (10% Iso-propanol, 6 hours) was 98.85 % Area. The “Dimer (%)” value (10% Iso-propanol, 24 hours) was 0.21%, the “HP1 (%)” value (10% Iso-propanol, 24 hours) was 1.92% and the “Purity (% Area)” value (10% Iso-propanol, 24 hours) was 97.68 % Area. For the same compound, the “Dimer (%)” value (10% Methanol, 0 hours) was 0.11%, the “HP1 (%)” value (10% Methanol, 0 hours) was 0.34% and the “Purity (% Area)” value (10% Methanol, 0 hours) was 99.42 % Area. For the same compound, the “Dimer (%)” value (10% Methanol, 3 hours) was 0.12%, the “HP1 (%)” value (10% Methanol, 3 hours) was 0.59% and the “Purity (% Area)” value (10% Methanol, 3 hours) was 99.01 % Area. For the same compound, the “Dimer (%)” value (10% Methanol, 6 hours) was 0.12%, the “HP1 (%)” value (10% Methanol, 6 hours) was 0.80% and the “Purity (% Area)” value (10% Methanol, 6 hours) was 98.86 % Area. The “Dimer (%)” value (10% Methanol, 24 hours) was 0.18%, the “HP1 (%)” value (10% Methanol, 24 hours) was 1.85% and the “Purity (% Area)” value (10% Methanol, 24 hours) was 97.65 % Area. The “Dimer (%)” value (10% Tert-butanol, 0 hours) was 0.11%, the “HP1 (%)” value (10% Tert-butanol, 0 hours) was 0.30% and the “Purity (% Area)” value (10% Tert-butanol, 0 hours) was 99.46 % Area. For the same compound, the “Dimer (%)” value (10% Tert-butanol, 3 hours) was 0.12%, the “HP1 (%)” value (10% Tert-butanol, 3 hours) was 0.48% and the “Purity (% Area)” value (10% Tert-butanol, 3 hours) was 99.26 % Area. For the same compound, the “Dimer (%)” value (10% Tert-butanol, 6 hours) was 0.13%, the “HP1 (%)” value (10% Tert-butanol, 6 hours) was 0.69% and the “Purity (% Area)” value (10% Tert-butanol, 6 hours) was 99.05 % Area. The “Dimer (%)” value (10% Tert-butanol, 24 hours) was 0.19%, the “HP1 (%)” value (10% Tert-butanol, 24 hours) was 1.64% and the “Purity (% Area)” value (10% Tert-butanol, 24 hours) was 98.04 % Area. The “Dimer (%)” value (10% n-Propanol, 0 hours) was 0.15%, the “HP1 (%)” value (10% n-Propanol, 0 hours) was 0.33% and the “Purity (% Area)” value (10% n-Propanol, 0 hours) was 99.34 % Area. The “Dimer (%)” value (10% n-Propanol, 3 hours) was 0.14%, the “HP1 (%)” value (10% n-Propanol, 3 hours) was 0.48% and the “Purity (% Area)” value (10% n-Propanol, 3 hours) was 99.17 % Area. The “Dimer (%)” value (10% n-Propanol, 6 hours) was 0.16%.

From US8895756B2, “Bendamustine pharmaceutical compositions” (priority 2005, dated 2014)
